# Values joined by “and” are separate entries in the source; they are usually repeats but may differ in a detail not shown here. Identical values can stand only once. “Also recorded” adds a separate entry of the source.
# Tests used:
# [1] = In vivo PK, plasma concentration via LC-MS/MS; parameters: species or system mice
# Method: The PK parameters were analyzed. The area under the plasma concentration versus time curve (AUC) is calculated using the linear trapezoidal method. The PK data were fitted to obtain PK parameters using the non-compartmental method.
# LP-411 in vivo PK. a. Semi-log PK profiles for […] at 20 mg/kg (n=3) determined through a 24 hr period. b.
# class I HDACs = assay: Class I HDAC inhibition (FIG. 7a); type: biochemical
# Method: All Treatments are at 100 nM inhibitor concentration.
# [2] = ESI-LCMS glucuronidation assay; type: in vitro ADME, human; conditions: 2,2,2-trifluoroacetate
# Method: Mixed gender pooled Human Liver Microsomes (HLMs) were purchased from Xenotech, Lot#H0160. A buffer solution containing 100 mM Tris HCl buffered to a pH of 7.5 at 37° C. was used to dilute HLMs to a concentration of 250 μg/mL. To this solution was added 1 μg/mL (final) of alamethicin and 5 mM MgCl2 (final). This solution was rocked gently at 4° C. for 15 minutes to allow pore formation. 180 μL of this solution was added to 10 μL of 5 mM inhibitor+10 μL of 50 mM UDPGA in H2O or just 10 μL H2O. This solution was gently rocked at 37° C. for 12 hours before being quenched with a 47:50:3 (v/v/v) solution of water, acetonitrile and formic acid. After a 15 minute centrifugation at 15000G in 37° C. conditions, 20 μL of supernatant was directly injected into Thermo LTQ Fleet LCMS.
# An Accucore RP-MS HPLC Column, 2.6 […], 30×4.6 mm was used throughout these assays. Water and methanol with 0.1% (v/v) formic acid were used as mobile phase. A gradient of 10% methanol 90% water was run isocratically for 2 minutes at […]. The gradient then changed to 100% methanol over 10 minutes before returning to 10% methanol 90% water over the next three minutes. Capillary temperature was 350° C., with a spray voltage of 5 kV.
# [3] = Stability in artificial gastric and intestinal juice and human serum; type: in vitro ADME; conditions: over 8 hours
# AML cell lines = assay: AML / leukemia cell toxicity; type: cell-based
# Method: MV4-11 cells were purchased from ATCC. The cells were grown according to ATCC protocol in Iscove's Modified Deulbecco's Medium with 10% Fetal Bovine Serum. Cells were grown in 37° C. environments with 5% CO2. Cells were plated at 20 k cells/well in 96-well clear U-bottom plates and pre-incubated for 24 hours. Addition of serially diluted inhibitor (in medium) was performed followed by 48 hours of additional incubation. Addition of CellTiter-Blue occurred to a final concentration of 0.125 mg/mL. The mixture was allowed to incubate until sufficient color changed occurred. Cell viability was measured as a function of resorfuin intensity using a Tecan M200 Pro spectrophotometer, 560 nm (ex.)/590 nm (em.). […] EC50's were determined using GraphPad Prism's built in “log(inhibitor) vs. normalized response—Variable slope” function.
# Hek293 cells were purchased from ATCC. Cells were grown as described above. Cells were plated at 20 k cells/well in 96-well clear U-bottom plates and pre-incubated for 24 hours. […] Cell viability was measured as a function of resorufin intensity using a Tecan M200 Pro spectrophotometer, 560 nm (ex.)/590 nm (em.).
# Human PBMCs were graciously donated from Dr. Nathan Dolloff s laboratory. […] Cell viability was measured as a function of resorufin intensity using a Tecan M200 Pro spectrophotometer, 560 nm (ex.)/590 nm (em.).
# MV4-11 cells [4] = assay: Pulse treatment of MV4-11 cells, cell death; type: cell-based; conditions: 2 hr treatment (200 nM), removal of inhibitor, 24 hr incubation
# [5] = tested on: Raw246.7 macrophage cells; assay: NO production in activated macrophages; type: cell-based; conditions: 100 nM, LPS and LPS+ATP
# Description: Hypo-acetylation of histone H3 and H4 were also reversed with HDAC inhibitor treatments (yellow dash box). d.
# [6] = tested on: melanoma and renal cancer; assay: Cell line efficacy, melanoma and renal cancer growth; type: cell-based; conditions: melanoma and renal cancer cell lines
# Description: Percent growth below zero indicates the treatment has selective lethality to the cancer cells.
# MV4-11 cells [7] = assay: Western blot analysis of MV4-11 cells; type: cell-based
# Method: MV4-11 cells were cultured as described above. Cells were plated at 500 k cells/mL×3 mLs in clear, flat bottom 6 well plates. Cells were pre-incubated for 24 hours before addition of inhibitor at various concentrations. […] Cell pellets were lysed with RIPA buffer. RIPA buffer is comprised of 50 mM Tris Base, 150 mM NaCl, 5 mM EDTA, 0.1% (v/v) SDS, 0.5% (v/v) Sodium Deoxycholate, and 1% (v/v) Triton-x-100. After lysing, the suspension is ultra-sonicated and centrifuged at 15000 RPM for 15 minute at 4° C. 80 μL of supernatant was mixed with 40 μL of 15:85 (v/v) 3-mercaptoethanol:LDS solution. The mixture was heated at 90° C. for 15 minutes and stored for loading at −20° C. Prior to loading, the solution was flash thawed at 90° C. Lysates were run on Invitrogen NuPAGE 4-12% Bis-Tris 15 well gels at 170V for approximately 60 minutes in MES buffer. Gels were transferred to […] and ran at 30V for 180 minutes. Primary antibodies, purchased from Santa Cruz Biotechnology, were added in 5% (w/v) milk or 5% (w/v) Bovine Serum Albumin fraction V. The antibody was incubated with cellulose overnight at 4° C. before addition of secondary antibody in 5% (w/v) milk or 5% (w/v) Bovine Serum Albumin. Images were read using a GE ImageQuant LAS 4000. Global lighting adjustments of resulting images were made using Adobe Photoshop CC. Quantification was performed using Image Studio Lite 4.0.
compound,measurement,setting,value
"CCCNNC(=O)/C=C/c1ccc(CNCCc2c(C)[nH]c3ccccc23)cc1 [LP-97, (E)-2-(2-methyl-1H-indol-3-yl)-N-(4-(3-oxo-3-(2-propylhydrazinyl)prop-1-en-1-yl)benzyl)ethan-1-aminium 2,2,2-trifluoroacetate]",Cmax relative to panobinostat,[1]; 20 mg/Kg I.P.,about 5 times
same,t1/2,"[1]; in vivo, 20 mg/kg, plasma",6.07 h
same,half-life,"[1]; mouse, intraperitoneal, in vivo, 20 mg/kg, plasma",6.07 h
same,Cmax,"[1]; mouse, plasma, ip, 20 mg/kg I.P.",559 ng/mL and 1.5 µM
same,"HDAC inhibitor potency, class I HDACs",class I HDACs,low-nanoM to picoM
same,glucuronidation by human liver microsomes,[2],resistance to glucuronidation; also recorded: resistant to glucuronidation
same,degradation in artificial gastric and intestinal juice and human serum,[3],no appreciable degradation
same,toxicity against wt-p53 versus p53-null and mutants,AML cell lines; n=3,selective toxicity
same,effective concentration against multiple AML cell lines,AML cell lines; wild-type p53 leukemia cell lines,< 100 nM
same,cell death after pulse treatment,MV4-11 cells [4],significant AML cell death
same,"NO production, acute treatment",[5],only inhibited LPS induced NO production but not ATP driven ones
same,growth inhibition concentration,[6],below 100 nM
same,total growth inhibition concentration,[6],1 µM
same,p53 level after pulse treatment,"MV4-11 cells [7]; 2 hr treatment (200 nM), removal of inhibitor, 24 hr incubation",significant reduction
same,effect on oncogenic proteins FLT3 and STAT5,MV4-11 cells [7]; AML FLT3-ITD mutant cell line MV4-11,degradation

# Reference: patent US10870618B2, “Histone deacetylase inhibitors and uses thereof” (MUSC FOUNDATION FOR RESEARCH DEVELOPMENT, priority 2016, dated 2020)
